In PubChem BioAssay (NCI):
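Following 48 hours of exposure in 96-well plates, responses at five concentrations were used to interpolate endpoints linearly. TGI marks complete inhibition of growth.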

Experiments:
Experiment in all cases: DTP human tumour cell line panel, 48 h
U251 CNS = system: U251 CNS
NCI-H226 lung = system: NCI-H226 lung
HS 578T breast = system: HS 578T breast
MALME-3M melanoma = system: MALME-3M melanoma
K-562 leukemia = system: K-562 leukemia
SK-MEL-28 melanoma = system: SK-MEL-28 melanoma
SF-539 CNS = system: SF-539 CNS
NCI/ADR-RES ovarian = system: NCI/ADR-RES ovarian
COLO 205 colon = system: COLO 205 colon
HOP-62 NSCLC = system: HOP-62 NSCLC
A549 NSCLC = system: A549 NSCLC
SK-OV-3 ovarian = system: SK-OV-3 ovarian
SF-268 CNS = system: SF-268 CNS
PC-3 prostate = system: PC-3 prostate
HCT-116 colon = system: HCT-116 colon
NCI-H522 lung = system: NCI-H522 lung
SF-295 CNS = system: SF-295 CNS
OVCAR-3 ovarian = system: OVCAR-3 ovarian
KM12 colon = system: KM12 colon

SMILES | TGI (U251 CNS) | TGI (NCI-H226 lung) | TGI (HS 578T breast) | TGI (MALME-3M melanoma) | TGI (K-562 leukemia) | TGI (SK-MEL-28 melanoma) | TGI (SF-539 CNS) | TGI (NCI/ADR-RES ovarian) | TGI (COLO 205 colon) | TGI (HOP-62 NSCLC) | TGI (A549 NSCLC) | TGI (SK-OV-3 ovarian) | TGI (SF-268 CNS) | TGI (PC-3 prostate) | TGI (HCT-116 colon) | TGI (NCI-H522 lung) | TGI (SF-295 CNS) | TGI (OVCAR-3 ovarian) | TGI (KM12 colon)
c1cc(-c2ncc(-c3ccc4c(c3)CCCO4)o2)ccn1 | 66.5 µM | > 100 µM | > 100 µM | 50.8 µM | 7.05 µM | > 100 µM | 45.2 µM | 23.1 µM | 91.5 µM | > 100 µM | > 100 µM | 93.5 µM | 86.3 µM | 46.5 µM | 39.3 µM | 16.7 µM | > 100 µM | 29.9 µM | –
CC(=O)c1sc2c(c1OC(=O)c1cccs1)c(=O)n(-c1ccccc1)c(=S)n2-c1ccccc1 | 26.7 µM | 9.84 µM | 22.3 µM | 6.7 µM | 95.4 µM | 15.6 µM | 6.26 µM | 43.3 µM | 32.5 µM | 33.9 µM | > 100 µM | 52 µM | 51.5 µM | 15.2 µM | 36.6 µM | 6.07 µM | 7.13 µM | 50.4 µM | 59 µM
COC1=C(Br)[C@H](O)[C@@]2(C=C1Br)CC(C(=O)NCCCCCN=C(N)N)=NO2 | > 10 µM | > 10 µM | > 10 µM | > 10 µM | > 10 µM | > 10 µM | > 10 µM | > 10 µM | > 10 µM | > 10 µM | > 10 µM | > 10 µM | > 10 µM | > 10 µM | > 10 µM | > 10 µM | > 10 µM | > 10 µM | > 10 µM
N#CC(C(=O)/C(=N/Nc1nc(=S)[nH]n1N)C(C#N)c1ccccc1)c1ccccc1 (centres undefined) | > 100 µM | > 100 µM | > 100 µM | > 100 µM | > 100 µM | > 100 µM | > 100 µM | > 100 µM | > 100 µM | > 100 µM | > 100 µM | > 100 µM | > 100 µM | > 100 µM | > 100 µM | > 100 µM | > 100 µM | > 100 µM | > 100 µM
Cc1cn(C2CC(ON3C(=O)c4ccccc4C3=O)C(CO)O2)c(=O)[nH]c1=O (centres undefined) | > 10 µM | > 10 µM | > 10 µM | > 10 µM | > 10 µM | – | > 10 µM | > 10 µM | – | – | > 10 µM | > 10 µM | > 10 µM | > 10 µM | > 10 µM | > 10 µM | > 10 µM | > 10 µM | > 10 µM
CN(C)C1=Nc2ccccc2C(=S)N2CSCC12 (centres undefined) | > 100 µM | > 100 µM | > 100 µM | 51.8 µM | > 100 µM | > 100 µM | – | > 100 µM | 52 µM | > 100 µM | > 100 µM | > 100 µM | > 100 µM | > 100 µM | > 100 µM | 29 µM | > 100 µM | > 100 µM | > 100 µM
N#CC(NNC(=O)Cc1ccccc1)c1ccccc1O (centres undefined) | > 92 µM | 68 µM | > 100 µM | 73.4 µM | > 100 µM | > 100 µM | 85.1 µM | > 74.6 µM | > 100 µM | > 70.6 µM | > 90.4 µM | > 85.4 µM | 98.7 µM | > 100 µM | > 100 µM | > 41.1 µM | > 100 µM | > 43.6 µM | > 100 µM
CCC1c2[nH]c3ccccc3c2C[C@H]2C(=O)NC(COC(C)(C)C)C(=O)N12 (some centres undefined) | > 100 µM | > 100 µM | > 100 µM | 94.7 µM | > 100 µM | > 100 µM | – | > 100 µM | 37.6 µM | > 100 µM | > 100 µM | > 100 µM | > 100 µM | 91.9 µM | > 100 µM | > 100 µM | 65.4 µM | > 100 µM | > 100 µM
N#Cc1c(-c2ccccc2)[nH]c2ccccc2c1=O | – | > 100 µM | 71.5 µM | > 100 µM | > 100 µM | > 100 µM | > 100 µM | > 100 µM | > 100 µM | 84.9 µM | > 100 µM | > 100 µM | > 100 µM | > 100 µM | > 100 µM | – | 66.7 µM | > 100 µM | > 100 µM
CNC(=S)N/N=C(C)\C(=N/NC(=S)NC)c1ccccc1 | – | > 100 µM | 72.5 µM | > 100 µM | – | – | > 100 µM | > 100 µM | > 100 µM | > 100 µM | > 100 µM | > 100 µM | > 100 µM | > 100 µM | > 100 µM | > 100 µM | > 100 µM | > 100 µM | > 100 µM
Cn1ccc(C(=O)NCCOCCNC(=O)c2ccn(C)c(=O)c2O)c(O)c1=O | > 100 µM | > 100 µM | > 100 µM | > 100 µM | – | > 100 µM | – | > 100 µM | > 100 µM | – | > 100 µM | – | > 100 µM | > 100 µM | > 100 µM | > 100 µM | – | – | > 100 µM
N#CSc1nc[nH]c1C(N)=O | > 100 µM | > 100 µM | > 100 µM | 56.6 µM | > 100 µM | > 100 µM | > 100 µM | > 100 µM | > 100 µM | > 100 µM | > 100 µM | > 100 µM | > 100 µM | > 100 µM | > 100 µM | > 100 µM | > 100 µM | > 100 µM | > 100 µM
CC12CCC(C(=O)OC1=O)C2(C)C (centres undefined) | > 100 µM | > 100 µM | > 100 µM | > 100 µM | > 100 µM | > 100 µM | > 100 µM | > 100 µM | > 100 µM | > 100 µM | – | > 100 µM | > 100 µM | > 100 µM | > 100 µM | > 100 µM | > 100 µM | > 100 µM | > 100 µM
